Some test systems named below: SK-MEL-2 melanoma; NCI-H460 lung; LOX IMVI melanoma; U251 CNS; HCC-2998 colon; SNB-19 CNS; SF-295 CNS; SK-MEL-5 melanoma; CCRF-CEM leukemia; NCI-H23 lung.
Holding throughout (experiment): growth of human tumour cells (NCI), 48 h

“And” between values parts separate entries of the source, which are not always exact repeats. Identical values can stand only once.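 How tested: cells in 96-well plates exposed to compound for 48 hours at five concentrations. The concentration for 50% growth inhibition is given as GI50. Definition used: TGI = concentration required for complete inhibition of growth.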

As for `CCCCC[C@@H]1CCCC2NC(CCCCCO[Si](c3ccccc3)(c3ccccc3)C(C)(C)C)CCC21` (stereo partly drawn), the TGI in the assay with SK-MEL-2 melanoma was determined as 31 µM; in the assay on NCI-H460 lung, 31.7 µM; in the assay with LOX IMVI melanoma it was 28.1 µM; in the assay on U251 CNS, 27.8 µM; in the assay with HCC-2998 colon, 25.1 µM; in the assay on SNB-19 CNS, 32.7 µM. The TGI amounted to 31.3 µM with SF-295 CNS, 35.3 µM in the assay with SK-MEL-5 melanoma, 26.7 µM with CCRF-CEM leukemia and 31.7 µM in the assay on NCI-H23 lung.
`N[C@H]1CCC[C@@H](O)C1O` (stereo partly drawn): the TGI in the assay on SK-MEL-2 melanoma, with NCI-H460 lung, in the assay with LOX IMVI melanoma, in the assay with U251 CNS, in the assay with HCC-2998 colon and with SNB-19 CNS was above 100 µM each time. Further, the TGI with SF-295 CNS, with SK-MEL-5 melanoma, in the assay on CCRF-CEM leukemia and with NCI-H23 lung was above 100 µM each time.
As for `CC(C)(C)OC(=O)NCCCCCCCCCn1c2c(c3ccccc3c1=O)C(=O)c1ccccc1-2`, the GI50 was 27.9 µM in the assay on SK-MEL-2 melanoma; above 100 µM with NCI-H460 lung; 76.3 µM in the assay on LOX IMVI melanoma; 22 µM in the assay on U251 CNS; above 100 µM with HCC-2998 colon; 28.2 µM with SNB-19 CNS. The GI50 in the assay on SF-295 CNS is 24.8 µM; in the assay on SK-MEL-5 melanoma it was above 100 µM; with CCRF-CEM leukemia it was above 100 µM; in the assay with NCI-H23 lung, 37 µM. Further, the TGI in the assay on SK-MEL-2 melanoma was 71.1 µM; in the assay on NCI-H460 lung it was above 100 µM; with LOX IMVI melanoma it was above 100 µM; with U251 CNS it was above 100 µM; in the assay with HCC-2998 colon it was above 100 µM; with SNB-19 CNS, above 100 µM. The TGI with SF-295 CNS, with SK-MEL-5 melanoma, in the assay on CCRF-CEM leukemia and with NCI-H23 lung was above 100 µM in each case.
Regarding `CCC/C=C/C=C/C(=O)OC1/C(=C/C(=O)OC)CC2CC(C(C)O)OC(=O)CC(O)CC3CC(OC(C)=O)C(C)(C)C(O)(CC4C/C(=C/C(=O)OC)CC(/C=C/C(C)(C)C1(O)O2)O4)O3` (stereo not drawn), the GI50 with SK-MEL-2 melanoma was > 10.9 µM and 5.77 µM and > 12.5 µM; in the assay with NCI-H460 lung, 9.82 µM and 2.81 µM and > 12.5 µM; with LOX IMVI melanoma it was > 10.9 µM and 8.02 µM and > 12.5 µM; in the assay on U251 CNS it was > 10.9 µM and 7.21 µM and > 12.5 µM; in the assay on HCC-2998 colon it was > 10.9 µM and 4.72 µM and > 12.5 µM; in the assay with SNB-19 CNS it was above 11 µM. Further, the GI50 was > 10.9 µM and 6.77 µM and > 12.5 µM in the assay on SF-295 CNS; 7.86 µM and 1.9 µM and > 12.5 µM in the assay on SK-MEL-5 melanoma; 8.79 µM and 5.35 µM and > 12.5 µM with CCRF-CEM leukemia; above 12.5 µM in the assay on NCI-H23 lung. Besides, the TGI is > 10.9 µM and 11 µM and > 12.5 µM in the assay with SK-MEL-2 melanoma; 10.9 µM and 11 µM and > 12.5 µM with NCI-H460 lung; > 10.9 µM and 11 µM and > 12.5 µM with LOX IMVI melanoma; > 10.9 µM and 9.3 µM and > 12.5 µM with U251 CNS; > 10.9 µM and 9 µM and > 12.5 µM in the assay on HCC-2998 colon; above 12.5 µM with SNB-19 CNS. Also, the TGI is > 10.9 µM and 11 µM and > 12.5 µM with SF-295 CNS; 10.9 µM and 11 µM and > 12.5 µM with SK-MEL-5 melanoma; 10.9 µM and 11 µM and > 12.5 µM in the assay on CCRF-CEM leukemia; > 10.9 µM and 11 µM and > 12.5 µM with NCI-H23 lung.
Take `NC(CSC(c1ccccc1)(c1ccccc1)c1ccccc1)C(=O)O` (stereo not drawn): the GI50 is 1.51 µM and 0.886 µM in the assay on SK-MEL-2 melanoma; 2.07 µM in the assay on NCI-H460 lung; 6.26 µM and 4.14 µM in the assay with LOX IMVI melanoma; 1.11 µM and 0.485 µM with U251 CNS; 2.52 µM and 2.64 µM in the assay with HCC-2998 colon; 2.26 µM and 5.8 µM in the assay with SNB-19 CNS. The GI50 with SF-295 CNS was 0.485 µM and 0.522 µM and 2.65 µM; in the assay on SK-MEL-5 melanoma, 0.601 µM and 0.41 µM; with CCRF-CEM leukemia, 1.59 µM and 0.942 µM. Moreover, the TGI in the assay with SK-MEL-2 melanoma is 5.34 µM and 9.72 µM and 5.63 µM; in the assay on NCI-H460 lung, 21 µM and 15.8 µM; in the assay on LOX IMVI melanoma, 24.3 µM and > 100 µM; in the assay on U251 CNS it was 16.9 µM and 32.4 µM and 43.4 µM; in the assay on HCC-2998 colon, 7.4 µM and 10.8 µM and 23.9 µM; with SNB-19 CNS it was 63.9 µM and > 100 µM. The TGI in the assay with SK-MEL-5 melanoma was 51.1 µM and 42.5 µM; in the assay with CCRF-CEM leukemia, 19.4 µM and > 100 µM; in the assay on NCI-H23 lung it was 7.15 µM and 51.7 µM.
Consider `O=C(NCCCN1CCN(CCCNC(=O)c2cccc3ccccc23)CC1)c1cccc2ccccc12`, for which the TGI in the assay on SK-MEL-2 melanoma, with NCI-H460 lung, in the assay with LOX IMVI melanoma, in the assay with U251 CNS, in the assay with HCC-2998 colon and with SNB-19 CNS was above 100 µM each time. The TGI in the assay on SF-295 CNS, with SK-MEL-5 melanoma, in the assay on CCRF-CEM leukemia and with NCI-H23 lung was above 100 µM in each case.
For the compound `COc1ccc([N+](=O)[O-])c2c(NCCCN(C)C)c(C)c(C)nc12`, the TGI with SK-MEL-2 melanoma, in the assay with NCI-H460 lung, in the assay on LOX IMVI melanoma, in the assay on U251 CNS, with HCC-2998 colon and with SNB-19 CNS was above 100 µM throughout. The TGI in the assay on SF-295 CNS, in the assay on SK-MEL-5 melanoma, with CCRF-CEM leukemia and in the assay with NCI-H23 lung was above 100 µM each time.
`O=C1/C(=C/c2ccc(F)cc2)COc2ccc(O)c(O)c21`: the GI50 was 4.61 µM with SK-MEL-2 melanoma; 3.33 µM with NCI-H460 lung; 1.03 µM in the assay with LOX IMVI melanoma; 1.46 µM with U251 CNS; 1.8 µM in the assay on HCC-2998 colon; 3.36 µM in the assay on SNB-19 CNS. The GI50 was 8.09 µM with SF-295 CNS, 3.16 µM with SK-MEL-5 melanoma, 0.313 µM in the assay with CCRF-CEM leukemia and 2.65 µM in the assay with NCI-H23 lung. Also, the TGI was 47.5 µM with SK-MEL-2 melanoma; above 100 µM with NCI-H460 lung; 2.39 µM in the assay on LOX IMVI melanoma; 4.19 µM with U251 CNS; 3.57 µM in the assay with HCC-2998 colon; 15.8 µM with SNB-19 CNS. For the same compound, the TGI with SF-295 CNS is above 100 µM; with SK-MEL-5 melanoma, 11.7 µM; in the assay with CCRF-CEM leukemia, 1.46 µM; with NCI-H23 lung, 13.7 µM.
As to `CCN(Cc1cc(Cl)cc(C)c1O)Cc1c(O)ccc2ccccc12`, the TGI with SK-MEL-2 melanoma is 32.7 µM; with NCI-H460 lung, 36 µM; in the assay with LOX IMVI melanoma, 38.8 µM; with U251 CNS it was 31.7 µM; in the assay on HCC-2998 colon, 32.7 µM; in the assay on SNB-19 CNS, 40.9 µM. Further, the TGI is 31.3 µM in the assay on SF-295 CNS, 29.4 µM with SK-MEL-5 melanoma, 42.5 µM in the assay with CCRF-CEM leukemia and 32.1 µM with NCI-H23 lung.
Consider `Cc1cccc(CNc2c3ccccc3nc3ccccc23)c1`, for which the GI50 in the assay on SK-MEL-2 melanoma was 1.94 µM; in the assay on NCI-H460 lung it was 1.99 µM; with LOX IMVI melanoma, 1.49 µM; with U251 CNS it was 1.96 µM; in the assay with HCC-2998 colon, 1.55 µM; in the assay with SNB-19 CNS, 3.07 µM. Besides, the GI50 with SF-295 CNS was 2.13 µM; in the assay with SK-MEL-5 melanoma, 1.7 µM; with CCRF-CEM leukemia it was 2.77 µM; with NCI-H23 lung, 1.63 µM. Moreover, the TGI came out at 4.14 µM with SK-MEL-2 melanoma; 5.03 µM in the assay on NCI-H460 lung; 2.9 µM in the assay on LOX IMVI melanoma; 5.54 µM in the assay on U251 CNS; 3.4 µM in the assay on HCC-2998 colon; 13 µM with SNB-19 CNS. In addition, the TGI with SF-295 CNS is 6.67 µM; in the assay on SK-MEL-5 melanoma it was 3.14 µM; with CCRF-CEM leukemia it was 15 µM; with NCI-H23 lung, 4.22 µM.

The values are drawn from PubChem BioAssay (NCI).
